In one series the test system is Zucker fa/fa rats. The experiment in a line: daily i.c.v. administration, feeding, drinking, body weight and motility. The series is classed as in vivo, rat. An excerpt:
(§1) Wistar and Zucker fa/fa rats were anesthetized with Forène (Abbott Laboratories, Queenborough, UK), and a stainless steel guide cannula (Plastic Products Co, Roanoke, Va, USA) was stereotaxically implanted into the right lateral ventricle at the following coordinates relative to the bregma: AP −0.8 mm, L = −1.2 mm, and V = −3.5 mm. After a 7-day recovery period, during which the animals were handled each day to minimize non-specific stress, they were lightly anesthetized with Forène. Human/mouse/rat MCH (1 μg in a volume of 2.5 μ L, Bachem, Voisins-le-Bretonneux, France) or an equivalent volume of artificial cerebrospinal fluid (CSF) was then injected through the intraventricular cannula. Immediately after injection, the animals quickly recovered and were returned to their home cages. Only those animals responding within 2 h with a robust increase in food intake, indicating correct cannula placement, were used in the experiments described below. Two days after MCH injection, the rats were randomly assigned to different groups and studied in one of the following protocols.
The TSE Drinking and Feeding Monitor system was used to analyze ingestive behavior in these experiments (TSE Technical & Scientific Equipment GmbH, Bad Homburg, Germany). The rats' motility was also determined in these experiments using the MoTil® system (TSE). Zucker fa/fa rats were placed individually into plastic cages to which were attached both a feeding and a drinking sensor. The animals were habituated to normal food (A03 UAR, Orge, France) and water for at least 2 weeks before experimentation. […] The injections were repeated daily for a total of 7 days. After 7 days, the injections were stopped and each measured parameter was followed during a 5-day washout period.
Figure 4 The effects of repeated daily central administration of S38151 on food intake, water intake, body weight, and motility in Zucker fa/fa rats. One hour prior the beginning of the dark phase, different doses of S38151 (5, 10, or 20 nmol/kg) or vehicle were injected (i.c.v.) once daily for 7 days, followed by a washout period of 5 days. […] Repeated measures Two-Way ANOVA (treatment × time) was performed with a repeated measure of the factor “time.” Significant treatment and interaction effects are shown on the graph. ^+P < 0.05; ^++P < 0.01; ^+++P < 0.001.

A short description of series [1]: stability in TRIS buffer pH 7.4. The settings on record: pH 7.4, Tris buffer pH 7.4, 40 μM, LC-MS/MS, representative of three experiments, read-out: % S38151 remaining. The series is classed as physicochemical. Here is the method:
First, S38151 was incubated for 16 h at 4°C and 37°C in mouse plasma or in TRIS buffer (pH 7.4). Next, plasma proteins were precipitated with two volumes of acetonitrile. After centrifugation and dilution with a water/acetonitrile mixture (50/50 v/v), the supernatant was injected onto a triple quadripole mass spectrometer (Ultima, Micromass WATERS Corporation, Milford, USA). The liquid chromatographic system consisted of an Agilent 1100 analytic pump (Agilent, Santa Clara, USA) equipped with an Alpha Mos CTC autosampler (Alpha Mos, Toulouse, France). Mass detection was performed using the m/z transition 743.5 > 163, in positive electrospray. A second stability study was performed at a lower concentration (1 μM) and for 4 h, with the following sampling times: 0, 15, 45, 90, and 240 min. At each sampling time, 50 μL of plasma were precipitated with two volumes of acetonitrile, and after centrifugation were directly injected onto the LC-MS/MS system. The same treatment was used for the buffer samples.
Figure 2 Studies regarding the stability of S38151. A solution of S38151 (40 μM) was incubated with either Tris buffer, pH 7.4 (hatched bars), or mouse plasma samples (dark bars) for 16 h at 4°C or 37°C. The samples were analyzed using liquid chromatography coupled to mass spectrometry. Experiments were repeated three times. The chart presented is representative of the experimental results. […]

Another series concerns Wistar rats. The series is described as follows: NEI-MCH-induced food intake after acute i.c.v. injection. The class given is in vivo, rat.
Text: as §1
Wistar rats were habituated for at least 2 weeks before experiment to a diet of food pellets (6 mm diameter) of the following composition: 67.5% food flour, 26.5% sucrose, 5% gum tragacanth, and 1.25% magnesium stearate (A03 UAR, Orge, France). The food pellets were present in a metal food hopper attached to the inside of each cage. At 09:00 on the day of study, the animals were lightly anesthetized with Forene® (Abbott, France). Thereafter, rats were injected intra-cerebroventricular (i.c.v.) with vehicle (artificial CSF) or with S38151 [0.5, 5, 10, 20, 30, or 50 nmol/kg ([…], 14, 28, 42, or 70 μg/kg, respectively)] in a volume of 2.5 μL, 20 min prior to the injection of human/rat NEI-MCH [5 nmol/kg (18.7 μg/kg) in a volume of 2.5 μL].
Food intake was measured at different times after peptide injection. Food spillage was carefully quantified during each time period, and intake measurements were corrected for this loss. At the end of the experiments, the animals were euthanized and the positions of the cannulae were assessed by the injection of 100 μ L Evans blue dye (2 mg/mL) followed by the visual examination of brain slices. Only data obtained from animals with correctly positioned cannulae were included in the final data analysis.
Figure 3 The effect of S38151 on NEI-MCH-induced food intake in Wistar rats after acute central administration. Satiated rats were injected (i.c.v.) at the beginning of the light phase with 5 μg NEI-MCH, 5 μg NEI-MCH + differing doses of S38151 (0.5–50 nmol/kg), or an equivalent volume of artificial cereblospinal fluid vehicle (5 μL). Cumulative food intake was measured at 1, 2, 4, 6, and 24 h post-injection.

Where two headings read alike, the source gives them in different places. Where a SMILES comes first, the peptide text is derived from it.

For `CSCC[C@@H]1NC(=O)[C@@H](NC(=O)c2ccc(NC(=N)N)cc2)CSSC[C@@H](C(=O)N[C@@H](Cc2c[nH]c3ccccc23)C(=O)O)NC(=O)[C@@H]2CCCN2C(=O)[C@H](CCCNC(=N)N)NC(=O)[C@H](Cc2ccc(O)cc2)NC(=O)[C@H](C(C)C)NC(=O)[C@H](CCCNC(=N)N)NC(=O)[C@H](CC(C)C)NC1=O` [S38151, p-guanidinobenzoyl-(Des-Gly10)-MCH (7–17)] (HELM PEPTIDE1{[N=C(N)Nc1ccc(C(=O)[*:2])cc1].C.M.L.R.V.Y.R.P.C.W}$PEPTIDE1,PEPTIDE1,2:R3-10:R3$$$V2.0; C-terminus assumed), the “body weight gain during the washout period” value in the series on Zucker fa/fa rats (5-day washout after 10 nmol/kg S38151 i.c.v. for 7 days) is reported as “remained significantly less than control values”. Also, the “motility during the washout period” value in the series on Zucker fa/fa rats (5-day washout after 20 nmol/kg S38151 i.c.v. for 7 days) is “remained significantly elevated”. For the same compound, the food intake entry with Zucker fa/fa rats (S38151 5, 10, 20 nmol/kg i.c.v. daily for 7 days, significant only at 20 nmol/kg, n = 8) is on record as “dose-dependent inhibition”. The motility entry with Zucker fa/fa rats (S38151 10 and 20 nmol/kg i.c.v. daily for 7 days) is listed as “significantly increased”. For the same compound, the body weight gain entry in the series on Zucker fa/fa rats (S38151 10 and 20 nmol/kg i.c.v. daily for 7 days, compared with control rats) is given as “dose-dependent reduction”. Further, the water intake result with Zucker fa/fa rats (S38151 i.c.v. daily for 7 days, all injected doses except the 5 nmol dose) is recorded as “significantly inhibited”. The fraction remaining (commonly the share of the starting amount still present when the sample was taken) at 16 h, 40 μM in series [1] (4°C) turned out to be 79%; in series [1] (37°C), 32%. Further, the “food intake during the entire 24-h period versus control group” value with Wistar rats (NEI-MCH alone or any combination of NEI-MCH and S38151, i.c.v.) is given as “not significantly altered”. In addition, the “inhibition of NEI-MCH-induced food intake” value in the series with Wistar rats (S38151 50 nmol/kg i.c.v.) is given as “Nearly complete inhibition”. Also, in the series on Wistar rats (S38151 0.5-50 nmol/kg i.c.v. 20 min before NEI-MCH, first and second hours), the “inhibition of the increase in food intake produced by NEI-MCH” value is on record as “statistically significant dose-related inhibition”.
